Source: ChEMBL document CHEMBL1130657, “Synthesis of novel fluorinated coumarins: excellent UV-light excitable fluorescent dyes” (Bioorg Med Chem Lett, 1998)

Assay: Photostability, pKa was evaluated
Type: physicochemical

| pKa | Structure (SMILES) |
| --- | --- |
| 3.7 | O=C(O)c1cc2cc(F)c(O)c(F)c2oc1=O |
| 7.5 | O=C(O)c1cc2ccc(O)cc2oc1=O |
| 3.8 | CCOC(=O)c1cc2cc(F)c(O)c(F)c2oc1=O |
| 4.7 | Cc1c(CC(=O)O)c(=O)oc2c(F)c(O)c(F)cc12 |
| 6.4 | Cc1cc(=O)oc2c(F)c(O)ccc12 |
